From ChEMBL document CHEMBL5608163, “Structure modification of anoplin for fighting resistant bacteria” (Eur J Med Chem, 2024)
≈ marks a conversion by molar mass, not a printed value. Peptide text beside a SMILES is read from it. * marks the point of attachment. Tridecanoyl = CCCCCCCCCCCCC(=O)*; Undecanoyl = CCCCCCCCCCC(=O)*; Nonanoyl = CCCCCCCCC(=O)*

Assays:
Bacillus subtilis [1] = experiment: Antibacterial activity against Bacillus subtilis assessed as reduction in bacterial growth; format: functional
Zymomonas mobilis [2] = experiment: Antibacterial activity against Zymomonas mobilis ATCC 10988 assessed as reduction in bacterial growth; format: functional
Escherichia coli [3] = experiment: Antibacterial activity against Escherichia coli DH5a assessed as reduction in bacterial growth; format: functional
[4] = tested on: Mycolicibacterium smegmatis; experiment: Antimycobacterial activity against Mycobacterium smegmatis mc2 155 assessed as reduction in bacterial cell growth incubated for 48 hrs by resazurin dye based assay; format: functional
Pseudomonas aeruginosa [5] = experiment: Antibacterial activity against Pseudomonas aeruginosa PAO1 assessed as reduction in bacterial growth; format: functional
[6] = Hemolytic activity in human erythrocytes; format: toxicity, cell-based, Erythrocyte
Enterococcus faecium = experiment: Antimicrobial activity against Enterococcus faecium assessed as reduction in microbial growth incubated for 18 to 20 hrs by Mueller-Hinton broth based microdilution method; format: functional; details: time 18-20 hrs
Staphylococcus aureus = experiment: Antimicrobial activity against Staphylococcus aureus ATCC 25923 assessed as reduction in microbial growth incubated for 18 to 20 hrs by Mueller-Hinton broth based microdilution method; format: functional; details: time 18-20 hrs
Escherichia coli [7] = experiment: Antibacterial activity against Escherichia coli ATCC 25922 assessed as bacterial growth inhibition incubate for 18 to 20 hrs by MH broth based assay; format: functional; details: time 18-20 hrs
[8] = Hemolytic activity in mouse RBC incubated for 1 hr; format: toxicity, cell-based, Erythrocyte; details: red blood cells
Bacillus subtilis [9] = experiment: Antimicrobial activity against Bacillus subtilis ATCC 23857 assessed as reduction in microbial growth incubated for 18 to 20 hrs by Mueller-Hinton broth based microdilution method; format: functional; details: time 18-20 hrs
[10] = Hemolytic activity in human RBC; format: toxicity, cell-based, Erythrocyte; details: red blood cells
[11] = Hemolytic activity in human erythrocytes measured after 1 hrs by microplate reader analysis; format: toxicity, cell-based, Erythrocyte
Zymomonas mobilis [12] = experiment: Antibacterial activity against Zymomonas mobilis ATCC 10988 assessed as bacterial growth inhibition; format: functional
Bacillus subtilis [13] = experiment: Antibacterial activity against Bacillus subtilis assessed as bacterial growth inhibition; format: functional
[14] = tested on: Mycolicibacterium smegmatis; experiment: Antibacterial activity against Mycobacterium smegmatis mc2 155 assessed as bacterial growth inhibition; format: functional
Pseudomonas aeruginosa [15] = experiment: Antibacterial activity against Pseudomonas aeruginosa PAO1 assessed as bacterial growth inhibition; format: functional
Escherichia coli [16] = experiment: Antibacterial activity against Escherichia coli DH5a assessed as bacterial growth inhibition; format: functional

Structure (SMILES)	MIC (Bacillus subtilis [1])	MIC (Zymomonas mobilis [2])	MIC (Escherichia coli [3])	MIC [4]	MIC (Pseudomonas aeruginosa [5])	HC50 [6]	MIC (Enterococcus faecium)	MIC (Staphylococcus aureus)	MIC (Escherichia coli [7])	HC50 at 1 h [8]	MIC (Bacillus subtilis [9])	HC50 [10]	HC50 at 1 h [11]	MIC (Zymomonas mobilis [12])	MIC (Bacillus subtilis [13])	MIC [14]	MIC (Pseudomonas aeruginosa [15])	MIC (Escherichia coli [16])
CCCCCCCCC(=O)NCC(=O)N[C@@H](CC(C)C)C(=O)N[C@@H](CC(C)C)C(=O)N[C@@H](CCCCN)C(=O)N[C@@H](Cc1ccccc1)C(=O)N[C@H](C(=O)N[C@@H](CCCCN)C(=O)N[C@@H](CCCCN)C(=O)N[C@@H](CC(C)C)C(=O)N[C@@H](CC(C)C)C(N)=O)[C@@H](C)CC (Nonanoyl-GLLKFIKKLL-NH2)	8 µM (≈ 10.5 µg/mL)	3.86 µM (≈ 5.06 µg/mL)	23.1 µM (≈ 30.3 µg/mL)	3.86 µM (≈ 5.06 µg/mL)	3.86 µM (≈ 5.06 µg/mL)	< 386 µM												
CCCCCCCCCCCCC(=O)NCC(=O)N[C@@H](CC(C)C)C(=O)N[C@@H](CC(C)C)C(=O)N[C@@H](CCCCN)C(=O)N[C@@H](Cc1ccccc1)C(=O)N[C@H](C(=O)N[C@@H](CCCCN)C(=O)N[C@@H](CCCCN)C(=O)N[C@@H](CC(C)C)C(=O)N[C@@H](CC(C)C)C(N)=O)[C@@H](C)CC (Tridecanoyl-GLLKFIKKLL-NH2)	8 µM (≈ 10.9 µg/mL)	22.1 µM (≈ 30.3 µg/mL)	22.1 µM (≈ 30.3 µg/mL)	3.69 µM (≈ 5.05 µg/mL)	3.69 µM (≈ 5.05 µg/mL)	< 370 µM												
CC(C)C[C@H](NC(=O)[C@H](CC(C)C)NC(=O)[C@H](CCCCN)NC(=O)[C@H](CCCCN)NC(=O)[C@H](Cc1c[nH]c2ccccc12)NC(=O)[C@H](CCCNC(=N)N)NC(=O)[C@H](CCCCN)NC(=O)[C@H](CC(C)C)NC(=O)[C@H](CC(C)C)NC(=O)[C@@H](N)Cc1c[nH]c2ccccc12)C(N)=O							16 µM	32 µM	64 µM (≈ 88.5 µg/mL)	> 200 µM	16 µM	> 200 µM						
CC(C)C[C@H](NC(=O)[C@H](CC(C)C)NC(=O)[C@H](CCCCN)NC(=O)[C@H](CCCCN)NC(=O)[C@H](Cc1c[nH]c2ccccc12)NC(=O)[C@H](Cc1c[nH]c2ccccc12)NC(=O)[C@H](CCCCN)NC(=O)[C@H](CC(C)C)NC(=O)[C@H](CC(C)C)NC(=O)[C@@H](N)CCCCN)C(N)=O (H-KLLKWWKKLL-NH2)							8 µM	16 µM	16 µM (≈ 21.7 µg/mL)	> 200 µM	8 µM	> 200 µM						
CCCCCCCCCCC(=O)NCC(=O)N[C@@H](CC(C)C)C(=O)N[C@@H](CC(C)C)C(=O)N[C@@H](CCCCN)C(=O)N[C@@H](Cc1ccccc1)C(=O)N[C@H](C(=O)N[C@@H](CCCCN)C(=O)N[C@@H](CCCCN)C(=O)N[C@@H](CC(C)C)C(=O)N[C@@H](CC(C)C)C(N)=O)[C@@H](C)CC (Undecanoyl-GLLKFIKKLL-NH2)	8 µM (≈ 10.7 µg/mL)	3.77 µM (≈ 5.05 µg/mL)	22.6 µM (≈ 30.3 µg/mL)	3.77 µM (≈ 5.05 µg/mL)	3.77 µM (≈ 5.05 µg/mL)	< 377 µM							148 µM	12.7 µM (≈ 17 µg/mL)	> 170 µM	> 168 µM	33.9 µM (≈ 45.4 µg/mL)	> 170 µM
